ChEMBL document CHEMBL3603838, “Guanidinium compounds with sub-micromolar activities against Mycobacterium tuberculosis. Synthesis, characterization and biological evaluations” (Bioorg Med Chem, 2015)
Values after ≈ are worked out from the molar mass of the structure shown.

Tests used:
[1] = system: Mycobacterium tuberculosis; assay: Ratio of isoniazid MIC to compound MIC for isoniazid-resistant Mycobacterium tuberculosis MYC5165; assay type: functional
[2] = Selectivity index, ratio of CC50 for human MRC5 cells to MIC for isoniazid-resistant Mycobacterium tuberculosis MYC5165; assay type: toxicity, cell-based; conditions: read-out: Selectivity Index
[3] = system: Mycobacterium tuberculosis; assay: Antimycobacterial activity against isoniazid-resistant Mycobacterium tuberculosis MYC5165 after 6 days by MTT assay; assay type: functional, organism-based; conditions: MYC5165, 144 h
[4] = system: Mycobacterium tuberculosis; assay: Ratio of streptomycin MIC to compound MIC for isoniazid-resistant Mycobacterium tuberculosis MYC5165; assay type: functional
[5] = system: Mycobacterium tuberculosis; assay: Ratio of CX1 MIC to compound MIC for isoniazid-resistant Mycobacterium tuberculosis MYC5165; assay type: functional

| Compound | Ratio [1] | selectivity ratio [2] | MIC [3] | IC50 ([3]; read-out: IC50) | Ratio [4] | Ratio [5] | IC50 [3] |
| --- | --- | --- | --- | --- | --- | --- | --- |
| N=C(N)NCCc1ccc(OCc2cc(COc3ccc(CCNC(=N)N)cc3)c(COc3ccc(CCNC(=N)N)cc3)cc2COc2ccc(CCNC(=N)N)cc2)cc1.O=C(O)C(F)(F)F | >125 | 377 | 0.1 µM | 30 nM | – | – | – |
| N=C(N)NCCc1ccc(OCc2cc(COc3ccc(CCNC(=N)N)cc3)cc(COc3ccc(CCNC(=N)N)cc3)c2)cc1.O=C(O)C(F)(F)F | >125 | 198 | 0.2 µM | – | 4 | – | – |
| N=C(N)NCCc1ccc(OCc2cccc(COc3ccc(CCNC(=N)N)cc3)c2)cc1.O=C(O)C(F)(F)F | 16 | 62 | 0.8 µM | 300 nM | – | 16 | – |
| N=C(N)NCCc1ccc(OCc2ccccc2COc2ccc(CCNC(=N)N)cc2)cc1.O=C(O)C(F)(F)F | 4 | 45 | 3.1 µM | 900 nM | – | – | – |
| NNC(=O)c1ccncc1 [ISONIAZID] | – | > 6 | 12.5 µM (≈ 1.71 µg/mL) | 650 nM | – | – | – |
| N=C(N)NCCc1cc2c(O)c(c1)Cc1cc(CCNC(=N)N)cc(c1O)Cc1cc(CCNC(=N)N)cc(c1O)Cc1cc(CCNC(=N)N)cc(c1O)C2 | – | > 256 | 0.8 µM (≈ 0.612 µg/mL) | – | – | – | – |
| O=C(O)c1cn(C2CC2)c2cc(N3CCNCC3)c(F)cc2c1=O [CIPROFLOXACIN] | – | – | 2.5 µM (≈ 0.828 µg/mL) | – | – | – | 1800 nM |
| N=C(N)NCCc1ccc(OCc2ccc(COc3ccc(CCNC(=N)N)cc3)cc2)cc1.O=C(O)C(F)(F)F | 60 | 38 | 0.8 µM | 200 nM | – | 16 | – |
| CN[C@@H]1[C@H](O[C@H]2[C@H](O[C@H]3[C@H](O)[C@@H](O)[C@H](N=C(N)N)[C@@H](O)[C@@H]3N=C(N)N)O[C@@H](C)[C@]2(O)C=O)O[C@@H](CO)[C@H](O)[C@H]1O [STREPTOMYCIN] | – | – | 2.7 µM (≈ 1.57 µg/mL) | – | – | – | – |
